Test results taken from patent US20160287571A1, “PHARMACEUTICAL COMPOSITIONS COMPRISING ANTIBACTERIAL AGENTS” (priority 2013, published 2016).
Read-outs that look alike come from different tables or passages of the source.

Tests used:
Format in all cases: cell-based, Acinetobacter baumannii
[1] = test system: A. baumannii NCTC 13302 (OXA 51, OXA 25); assay: Time kill study; conditions: for Bacterial count: initial count 6.54 log CFU/ml; for Effect on bacterial counts throughout the duration of the study (in words): A. baumannii NCTC 13302, summary of Table 3
Procedure: (§1) The synergistic killing effect of the combinations according to invention was studied using time kill studies. In a typical time kill study, freshly grown cultures were diluted to the required cell density (initial starting inoculum) in Cation adjusted Muller Hinton broth medium (BD, USA). The antibacterial agents (either alone or in combination) at the required concentrations were added into the culture-containing medium. The samples were incubated under shaking condition (120 rpm) at 37° C. Enumeration of viable bacterial count was done every 2 hour by diluting in normal saline and plating on to the Tryptic Soya Agar plates (BD, USA). The plates were incubated for 24 hours to arrive at the viable bacterial count. The results are expressed in terms of Log CFU per […]. In general, the decrease of 1 Log CFU/ml, corresponds to 90% killing of bacteria. Similarly, 2 Log CFU/ml reductions indicates 99% killing of bacteria and 3 Log CFU/ml reductions is equal to 99.9% killing of bacteria.

[2] = test system: A. baumannii NCTC 13304 (OXA 51, OXA 27); assay: Time kill study; conditions: for Bacterial count: initial count 6.06 log CFU/ml
Procedure: as §1

[3] = test system: A. baumannii NCTC 13303 (OXA 51, OXA 26); assay: MIC in Muller Hinton Agar (CLSI agar dilution)
Procedure: (§2) The antibacterial activity of combinations according to the invention against resistant bacterial strains was investigated. Minimum Inhibitory Concentration (MIC) for the combinations according to invention was determined in Muller Hinton Agar (MHA) (BD, USA) according to Clinical and Laboratory Standards Institute (CLSI) recommendations (Clinical and Laboratory Standards Institute (CLSI), Performance Standards for Antimicrobial Susceptibility Testing, 20th Informational Supplement, M 100-S20, Volume 30, No. 1, 2010). Typically, the test strains were adjusted to deliver about 10^4 CFU per spot with a multipoint inoculator (Applied Quality Services, UK). The plates were pored with MHA containing doubling concentration range of the test combinations according to invention. The plates were inoculated and were incubated at 35° C. for 18 hours.

[4] = test system: A. baumannii J 144 (OXA 51, OXA 23); assay: MIC in Muller Hinton Agar (CLSI agar dilution)
Procedure: as §2

[5] = test system: A. baumannii NCTC 13301 (OXA 51, OXA 23); assay: MIC in Muller Hinton Agar (CLSI agar dilution)
Procedure: as §2

[6] = test system: A. baumannii M 126 (OXA 51, OXA 23); assay: MIC in Muller Hinton Agar (CLSI agar dilution)
Procedure: as §2

[7] = test system: A. baumannii NCTC 13302 (OXA 51, OXA 25); assay: MIC in Muller Hinton Agar (CLSI agar dilution)
Procedure: as §2

[8] = test system: A. baumannii Q 1460648 (OXA 51, OXA 23); assay: MIC in Muller Hinton Agar (CLSI agar dilution)
Procedure: as §2

[9] = test system: A. baumannii NCTC 13304 (OXA 51, OXA 27); assay: MIC in Muller Hinton Agar (CLSI agar dilution)
Procedure: as §2

[10] = test system: A. baumannii NCTC 13305 (OXA 51, OXA 58); assay: MIC in Muller Hinton Agar (CLSI agar dilution)
Procedure: as §2

[11] = test system: A. baumannii G 156 (OXA 51, OXA 23); assay: MIC in Muller Hinton Agar (CLSI agar dilution)
Procedure: as §2

[12] = 2 hours, agent alone at 4 mcg/ml
[13] = 4 hours, agent alone at 4 mcg/ml
[14] = 6 hours, agent alone at 4 mcg/ml
[15] = Acinetobacter baumannii, NCTC13303, agent alone, A. baumannii NCTC 13303, read-out: MIC
[16] = Acinetobacter baumannii, agent alone, A. baumannii J 144, read-out: MIC
[17] = Acinetobacter baumannii, NCTC13301, agent alone, A. baumannii NCTC 13301, read-out: MIC
[18] = Acinetobacter baumannii, agent alone, A. baumannii M 126, read-out: MIC
[19] = Acinetobacter baumannii, NCTC13302, agent alone, A. baumannii NCTC 13302, read-out: MIC
[20] = Acinetobacter baumannii, agent alone, A. baumannii Q 1460648, read-out: MIC
[21] = Acinetobacter baumannii, NCTC13304, agent alone, A. baumannii NCTC 13304, read-out: MIC
[22] = Acinetobacter baumannii, NCTC13305, agent alone, A. baumannii NCTC 13305, read-out: MIC
[23] = Acinetobacter baumannii, agent alone, A. baumannii G 156, read-out: MIC

Question: With O=C(NNC(=O)[C@@H]1CC[C@@H]2CN1C(=O)N2OS(=O)(=O)O)[C@@H]1CCCNC1 [Compound of Formula (I), (2S, 5R)-sulphuric acid mono-[2-(N′-[(R)-piperidin-3-carbonyl]-hydrazinocarbonyl)-7-oxo-1,6-diaza-bicyclo[3.2.1]oct-6-yl] ester] as the molecule, how does the Bacterial count [1, 12] read?
Answer: Its Bacterial count is 7.5 Log CFU/ml.

Question: And the Bacterial count [1, 13]?
Answer: Its Bacterial count is 7.8 Log CFU/ml.

Question: What about the Bacterial count [1, 14] of the same molecule?
Answer: The Bacterial count was 7.95 Log CFU/ml.

Question: What about the Bacterial count ([1]; 8 hours, agent alone at 4 mcg/ml) of the same molecule?
Answer: Its Bacterial count is 8.4 Log CFU/ml.

Question: And the “Effect on bacterial counts throughout the duration of the study (in words)” value (“Effect” below) [1]?
Answer: The value was “did not reduce the bacterial counts”.

Question: And the Bacterial count [2, 12]?
Answer: The Bacterial count was 7 Log CFU/ml.

Question: And the Bacterial count [2, 13]?
Answer: Its Bacterial count is 7.55 Log CFU/ml.

Question: What about the Bacterial count [2, 14] of the same molecule?
Answer: The Bacterial count was 8.1 Log CFU/ml.

Question: What about the “Effect” value ([2]; A. baumannii NCTC 13304, summary of Table 4) of the same molecule?
Answer: Its value is “did not reduce the bacterial counts”.

Question: What about the MIC [3, 15] of the same molecule?
Answer: Its MIC is over 32 µg/mL.

Question: What about the MIC [4, 16] of the same molecule?
Answer: The MIC was over 32 µg/mL.

Question: What about the MIC [5, 17] of the same molecule?
Answer: The MIC was over 32 µg/mL.

Question: And the MIC [6, 18]?
Answer: Its MIC is over 32 µg/mL.

Question: What about the MIC [7, 19] of the same molecule?
Answer: Its MIC is over 32 µg/mL.

Question: What about the MIC [8, 20] of the same molecule?
Answer: Its MIC is over 32 µg/mL.

Question: And the MIC [9, 21]?
Answer: The MIC was over 32 µg/mL.

Question: What about the MIC [10, 22] of the same molecule?
Answer: Its MIC is over 32 µg/mL.

Question: What about the MIC [11, 23] of the same molecule?
Answer: The MIC was over 32 µg/mL.

Question: What does the source list for C[C@@H](O)[C@H]1C(=O)N2C(C(=O)O)=C(S[C@@H]3CN[C@H](C(=O)N(C)C)C3)[C@H](C)[C@H]12 [Meropenem, meropenem]?
Answer: MIC [3, 15]: > 32 µg/mL; MIC [6, 18]: 32 µg/mL; MIC [8, 20]: 32 µg/mL; MIC [9, 21]: 32 µg/mL; MIC [10, 22]: 4 µg/mL; MIC [11, 23]: 32 µg/mL

Question: For CN(C)c1cc(NC(=O)CNC(C)(C)C)c(O)c2c1C[C@H]1C[C@H]3[C@H](N(C)C)C(O)=C(C(N)=O)C(=O)[C@@]3(O)C(O)=C1C2=O [Tigecycline, tigecycline], which Bacterial count ([1]; 2 hours, agent alone at 1 mcg/ml) is on record?
Answer: Its Bacterial count is 3.47 Log CFU/ml.

Question: What about the Bacterial count ([1]; 4 hours, agent alone at 1 mcg/ml) of the same molecule?
Answer: Its Bacterial count is 3 Log CFU/ml.

Question: What about the Bacterial count ([1]; 6 hours, agent alone at 1 mcg/ml) of the same molecule?
Answer: Its Bacterial count is 3 Log CFU/ml.

Question: And the Bacterial count ([1]; 8 hours, agent alone at 1 mcg/ml)?
Answer: Its Bacterial count is 3.23 Log CFU/ml.

Question: What about the “Effect” value [1] of the same molecule?
Answer: The value was “exhibited the reduction of the bacterial counts”.

Question: And the MIC ([3]; Acinetobacter baumannii, NCTC13303)?
Answer: Its MIC is 2 µg/mL.

Question: What about the MIC ([4]; Acinetobacter baumannii) of the same molecule?
Answer: Its MIC is 2 µg/mL.

Question: What about the MIC ([5]; Acinetobacter baumannii, NCTC13301) of the same molecule?
Answer: Its MIC is 2 µg/mL.

Question: What about the MIC ([6]; Acinetobacter baumannii) of the same molecule?
Answer: Its MIC is 0.5 µg/mL.

Question: And the MIC ([7]; Acinetobacter baumannii, NCTC13302)?
Answer: Its MIC is 2 µg/mL.

Question: What about the MIC ([8]; Acinetobacter baumannii) of the same molecule?
Answer: Its MIC is 1 µg/mL.

Question: What about the MIC ([9]; Acinetobacter baumannii, NCTC13304) of the same molecule?
Answer: The MIC was 0.5 µg/mL.

Question: What about the MIC ([10]; Acinetobacter baumannii, NCTC13305) of the same molecule?
Answer: The MIC was 0.5 µg/mL.

Question: What about the MIC ([11]; Acinetobacter baumannii) of the same molecule?
Answer: The MIC was 1 µg/mL.

Question: For C[C@@H](O)[C@H]1C(=O)N2C(C(=O)O)=C(SCCN=CN)C[C@H]12 [Imipenem, imipenem], which Bacterial count ([1]; 2 hours, agent alone at 8 mcg/ml) is on record?
Answer: Its Bacterial count is 7.87 Log CFU/ml.

Question: And the Bacterial count ([1]; 4 hours, agent alone at 8 mcg/ml)?
Answer: The Bacterial count was 8.27 Log CFU/ml.

Question: What about the Bacterial count ([1]; 6 hours, agent alone at 8 mcg/ml) of the same molecule?
Answer: The Bacterial count was 8.07 Log CFU/ml.

Question: What about the Bacterial count ([1]; 8 hours, agent alone at 8 mcg/ml) of the same molecule?
Answer: The Bacterial count was 8.47 Log CFU/ml.

Question: And the Bacterial count ([2]; 2 hours, agent alone at 16 mcg/ml)?
Answer: The Bacterial count was 6.34 Log CFU/ml.

Question: What about the Bacterial count ([2]; 4 hours, agent alone at 16 mcg/ml) of the same molecule?
Answer: Its Bacterial count is 7.47 Log CFU/ml.

Question: What about the Bacterial count ([2]; 6 hours, agent alone at 16 mcg/ml) of the same molecule?
Answer: Its Bacterial count is 7.07 Log CFU/ml.

Question: And the MIC [3, 15]?
Answer: Its MIC is over 32 µg/mL.

Question: And the MIC [4, 16]?
Answer: The MIC was over 32 µg/mL.

Question: What about the MIC [5, 17] of the same molecule?
Answer: Its MIC is 32 µg/mL.

Question: What about the MIC [6, 18] of the same molecule?
Answer: The MIC was 16 µg/mL.

Question: And the MIC [7, 19]?
Answer: The MIC was over 32 µg/mL.

Question: What about the MIC [8, 20] of the same molecule?
Answer: Its MIC is 32 µg/mL.

Question: What about the MIC [9, 21] of the same molecule?
Answer: Its MIC is 32 µg/mL.

Question: And the MIC [10, 22]?
Answer: Its MIC is 8 µg/mL.

Question: What about the MIC [11, 23] of the same molecule?
Answer: The MIC was 16 µg/mL.

Question: Which results are given for colistin?
Answer: MIC ([3]; agent alone, A. baumannii NCTC 13303): 1 µg/mL; MIC ([4]; agent alone, A. baumannii J 144): 1 µg/mL; MIC ([5]; agent alone, A. baumannii NCTC 13301): 2 µg/mL; MIC ([6]; agent alone, A. baumannii M 126): 1 µg/mL; MIC ([7]; agent alone, A. baumannii NCTC 13302): 2 µg/mL; MIC ([8]; agent alone, A. baumannii Q 1460648): 1 µg/mL; MIC ([9]; agent alone, A. baumannii NCTC 13304): 1 µg/mL; MIC ([10]; agent alone, A. baumannii NCTC 13305): 1 µg/mL; MIC ([11]; agent alone, A. baumannii G 156): 1 µg/mL
